# From patent US20250019350A1, “SYNTHESIS OF THE PROSTATE SPECIFIC MEMBRANE ANTIGEN (PSMA) RADIOLABELED INHIBITOR [18F]DCFPYL” (Progenics Pharmaceuticals, Inc, priority 2023, published 2025)
# Assay: HPLC/UV (264 nm) chemical impurity assay; ascorbic acid related impurity
# Type: physicochemical
# Conditions: development lot at 163.0 mCi/mL with ascorbic acid
# Protocol: Analytical HPLC method was used. The method employs UV detection at 264 nm for chemical impurities, and an Eckert & Ziegler model B-FC-1000 gamma detector for radiochemical assays.
# Since the peak has not been previously observed in preparations in the absence of ascorbic acid it is likely ascorbic acid related and was further investigated. A decayed sample from the lot produced was analyzed further and confirmed the presence of the peak, FIG. 35. […] The sample was assayed for chemical impurities at T=0, 4, 10 and 24 hours when held inverted at ambient conditions. […] The impurity only formed with radioactivity exposure but not when stored in light or dark at ambient conditions (see FIG. 37).
structure (smiles),measurement,value
"O=C(O)CC[C@H](NC(=O)N[C@@H](CCCCNC(=O)c1ccc([18F])nc1)C(=O)O)C(=O)O [Lot 18F-DCFPyL, 2-(3-{1-carboxy-5-[(6-[18F]fluoro-pyridine-3-carbonyl)-amino]-pentyl}ureido)-pentanedioic acid]",chemical impurity at retention time approximately 4.6 minutes on the UV trace,0.9 µg/mL
